In patent US20210130406A1, “PEPTIDE, COMPOSITION, AND METHOD FOR TREATING, PREVENTING, OR AMELIORATING MOOD DISORDER” (KYOTO UNIVERSITY, priority 2018, published 2021):

Tests used:
[1] = tested on: ddy mouse; experiment: Tail suspension test (motivation-improving effect), oral peptide; type: in vivo; conditions: 30 minutes after administration, vs saline control
Experimental: (§1) Each prepared peptide was administered to a mouse (ddy mouse (5-week-old male, body weight 24 g-28 g)) in each of the following tests, and then the motivation-improving effect was evaluated by a tail suspension test.
(§2) Each mouse was suspended by the tail and hung 30 cm above the floor, 30 minutes after peptide administration. Subsequently, over a period of 6 minutes from the start of the test (0 minute), the time (immobility time) during which the mouse was in an immobility state after initiating escape behavior was measured. The immobility state is known as a “despair state”, and it can be evaluated that the shorter the immobility time, the better the despair state and the greater the motivation. Therefore, substances that provide a motivation-improving effect in this test can be effective in treating, preventing, or ameliorating mood disorders.
(§3) The amino acid sequence represented by SEQ ID NO: 2 was dissolved in physiological saline and orally administered to each mouse in an amount of 0.03, 0.1, or 0.3 mg/kg per body weight (n=5 to 6). As a control, mice were prepared by orally administering physiological saline alone (n=6). Each mouse was subjected to a tail suspension test, and the motivation-improving effect resulting from the peptide of the present invention was evaluated.
as §3, with “Each of the” for “The”, “sequences” for “sequence”, “NOS: 1 to 3” for “NO: 2”, “mice” for “each mouse”, “0.1” for “0.03, 0.1, or 0.3”, “alone to the mice” for “alone”

[2] = tested on: ddy mouse; experiment: Tail suspension test, peptide combined with receptor antagonists; type: in vivo; conditions: Test 3, FIG. 3
Experimental: as §1, §2
Mice were prepared by orally administering the amino acid sequence represented by SEQ ID NO: 2 in an amount of 0.3 mg/kg and various receptor antagonists in combination thereto (n=5 to 6). Each mouse was subjected to a tail suspension test, and the motivation-improving effect resulting from the peptide of the present invention was evaluated.
(1) SCH23390: dopamine D1 receptor antagonist, and the amount used: 30 μg/kg (2) WAY100135: serotonin 5-HT1A receptor antagonist, and the amount used: 10 mg/kg (3) Bicuculline: GABA-A receptor antagonist, and the amount used: 30 mg/kg

[3] = Test 2, FIG. 2, oral 0.1 mg/kg in physiological saline

Row | Substance | immobility time ([1]; Test 1, FIG. 1, oral 0.03, 0.1 or 0.3 mg/kg in physiological saline, 6 minutes test, tendency depended on concentration) | immobility time [1, 3] | immobility time ([2]; oral 0.3 mg/kg combined with Bicuculline (GABA-A receptor antagonist) 30 mg/kg) | immobility time ([2]; oral 0.3 mg/kg combined with SCH23390 (dopamine D1 receptor antagonist) 30 μg/kg) | immobility time ([2]; oral 0.3 mg/kg combined with WAY100135 (serotonin 5-HT1A receptor antagonist) 10 mg/kg)
1 | QQFLPEGQSQSQK [SEQ ID NO: 2] | shorter than that of the control | shorter immobility time than the control | relatively decreased the immobility time | significantly increased immobility time | relatively decreased the immobility time
2 | QQFLPEG [SEQ ID NO: 3] | – | not observed to have any decrease in immobility time | – | – | –
3 | QSQSQK [SEQ ID NO: 1] | – | shorter immobility time than the control | – | – | –
